Experimental data: PubChem BioAssay AID248 (DTP/NCI, 2004)
“And” between values parts separate entries of the source, which are not always exact repeats. Equal values may be shown once. Toxic doses and inconclusive results are not listed. No stated cut-off is given here; in the data, active means T/C of 150% or more; inactive means T/C below 125%.

Tested on: L1210 leukemia ip in BDF1 mice, survival T/C
Assay: NCI In Vivo Anticancer Drug Screen. Data for tumor model L1210 Leukemia (intraperitoneal) in B6D2F1 (BDF1) mice
Conditions: endpoint: mean survival time, higher = longer survival
How it was run: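 Survival endpoint. Drug-treated group vs vehicle group, expressed as T divided by C. Tumor passaged by transplantation.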

[1] = dose: 12.5 mg/kg/injection, schedule: Q01DX009 (ip), vehicle: Klucel (hydroxypropylcellulose) (HPC)
[2] = dose: 25.0 mg/kg/injection, schedule: Q01DX009 (ip), vehicle: Klucel (hydroxypropylcellulose) (HPC)
[3] = dose: 50.0 mg/kg/injection, schedule: Q01DX009 (ip), vehicle: Klucel (hydroxypropylcellulose) (HPC)
[4] = dose: 100.0 mg/kg/injection, schedule: Q04DX003 (ip), vehicle: saline with Tween-80
[5] = dose: 200.0 mg/kg/injection, schedule: Q04DX003 (ip), vehicle: saline with Tween-80
[6] = dose: 400.0 mg/kg/injection, schedule: Q04DX003 (ip), vehicle: saline with Tween-80
[7] = dose: 100.0 mg/kg/injection, schedule: Q04DX002 (ip), vehicle: Klucel (hydroxypropylcellulose) (HPC)
[8] = dose: 100.0 mg/kg/injection, schedule: Q01DX009 (ip), vehicle: saline with Tween-80
[9] = dose: 200.0 mg/kg/injection, schedule: Q01DX009 (ip), vehicle: saline with Tween-80
[10] = dose: 100.0 mg/kg/injection, schedule: Q01DX001 (ip), vehicle: saline
[11] = dose: 200.0 mg/kg/injection, schedule: Q01DX001 (ip), vehicle: saline
[12] = dose: 400.0 mg/kg/injection, schedule: Q01DX001 (ip), vehicle: saline
[13] = dose: 100.0 mg/kg/injection, schedule: Q04DX003 (ip), vehicle: saline
[14] = dose: 200.0 mg/kg/injection, schedule: Q04DX003 (ip), vehicle: saline

Measured: T/C

CCCCN(C(=O)CCl)C(C)(C)C(SSC(c1ccc(Cl)cc1)C(C)(C)N(CCCC)C(=O)CCl)c1ccc(Cl)cc1 (configuration not stated)
inactive: [1] 96 % of control | [2] 101 % of control | [3] 96 % of control

C=CCNC(=O)OCC
inactive: [4] 100 % of control | [5] 95 % of control | [6] 100 % of control

CN(C(=O)C1C(C(=O)O)C2(Cl)C(Cl)=C(Cl)C1(Cl)C2(Cl)Cl)C1CCCCC1 (configuration not stated)
inactive: [7] 110 % of control | dose: 200.0 mg/kg/injection, schedule: Q04DX002 (ip), vehicle: Klucel (hydroxypropylcellulose) (HPC) 98 % of control

Cc1ccccc1OS(=O)(=O)c1cccc([N+](=O)[O-])c1
inactive: [8] 93 % of control | [9] 92 % of control | dose: 400.0 mg/kg/injection, schedule: Q01DX009 (ip), vehicle: saline with Tween-80 90 % of control

CCOC(=O)c1ccccc1NC(OCC)C(=O)c1ccccc1 (configuration not stated) (tested in a mixture with another compound)
inactive: [10] 96 % of control | [11] 97 % of control | [12] 103 % of control

CCCCN1CSC(=S)N(CCCC)C1
inactive: dose: 100.0 mg/kg/injection, schedule: Q04DX002 (ip), vehicle: saline with Tween-80 100 % of control | dose: 200.0 mg/kg/injection, schedule: Q04DX002 (ip), vehicle: saline with Tween-80 93 % of control | dose: 400.0 mg/kg/injection, schedule: Q04DX002 (ip), vehicle: saline with Tween-80 105 % of control

C=CCNC(=O)N(CC=C)N=O
inactive: dose: 1.5 mg/kg/injection, schedule: Q01DX001 (ip), vehicle: carboxymethylcellulose (CMC) 102 % of control | dose: 3.0 mg/kg/injection, schedule: Q01DX001 (ip), vehicle: carboxymethylcellulose (CMC) 95 % of control | dose: 6.0 mg/kg/injection, schedule: Q01DX001 (ip), vehicle: carboxymethylcellulose (CMC) 96 % of control | dose: 12.0 mg/kg/injection, schedule: Q01DX001 (ip), vehicle: carboxymethylcellulose (CMC) 90 % of control | dose: 16.0 mg/kg/injection, schedule: Q01DX001 (ip), vehicle: carboxymethylcellulose (CMC) 102 % of control | dose: 31.0 mg/kg/injection, schedule: Q01DX001 (ip), vehicle: carboxymethylcellulose (CMC) 104 % of control | dose: 62.0 mg/kg/injection, schedule: Q01DX001 (ip), vehicle: carboxymethylcellulose (CMC) 100 % of control | dose: 125.0 mg/kg/injection, schedule: Q01DX001 (ip), vehicle: carboxymethylcellulose (CMC) 96 % of control

CC(C(O)c1ccc(F)cc1)C(O)(C(F)(F)F)C(F)(F)F (configuration not stated)
inactive: [4] 97 % of control | [5] 98 % of control | [6] 86 % of control

C#CC(OC(=O)NC)(c1ccccc1)c1ccc(OC)cc1 (configuration not stated)
inactive: dose: 6.25 mg/kg/injection, schedule: Q01DX009 (ip), vehicle: Klucel (hydroxypropylcellulose) (HPC) 112 % of control | dose: 11.0 mg/kg/injection, schedule: Q01DX006 (ip), vehicle: Klucel (hydroxypropylcellulose) (HPC) 120 % of control | [1] 114 % of control | dose: 25.0 mg/kg/injection, schedule: Q01DX006 (ip), vehicle: Klucel (hydroxypropylcellulose) (HPC) 115 % of control | dose: 37.0 mg/kg/injection, schedule: Q01DX006 (ip), vehicle: Klucel (hydroxypropylcellulose) (HPC) 109 % of control | [3] 119 % of control | dose: 100.0 mg/kg/injection, schedule: Q04DX003 (ip), vehicle: Klucel (hydroxypropylcellulose) (HPC) 111 % of control

CCOC(=O)N1C=Cc2c(c3ccccc3n2C)N1C(=O)OCC
inactive: [10] 93 % of control | [11] 104 % of control | [12] 100 % of control

C=CCNC(=O)Nc1ncc([N+](=O)[O-])s1
inactive: [2] 90 % of control | dose: 25.0 mg/kg/injection, schedule: Q04DX002 (ip), vehicle: Klucel (hydroxypropylcellulose) (HPC) 101 % of control | [3] 111 % of control | dose: 50.0 mg/kg/injection, schedule: Q04DX002 (ip), vehicle: Klucel (hydroxypropylcellulose) (HPC) 93 % of control | [7] 93 % of control

O=c1cc(C[n+]2ccccc2)[nH]c(=O)[nH]1
inactive: [13] 89 % of control | [14] 89 % of control

O=[N+]([O-])c1ccc(F)cc1F
inactive: dose: 22.0 mg/kg/injection, schedule: Q01DX009 (ip), vehicle: Klucel (hydroxypropylcellulose) (HPC) 103 % of control | dose: 43.7 mg/kg/injection, schedule: Q01DX009 (ip), vehicle: Klucel (hydroxypropylcellulose) (HPC) 105 % of control | dose: 87.5 mg/kg/injection, schedule: Q01DX009 (ip), vehicle: Klucel (hydroxypropylcellulose) (HPC) 97 % of control and 114 % of control

Nc1nc2c(c(-c3ccc(Cl)cc3)n1)CN(CCCC(=O)O)C2=O
inactive: [10] 105 % of control | [13] 96 % of control | [11] 98 % of control | [14] 104 % of control | [12] 100 % of control | dose: 400.0 mg/kg/injection, schedule: Q04DX003 (ip), vehicle: saline 107 % of control

c1ccc(C2=NNC(c3ccccc3)(c3ccccc3)c3ccccc32)cc1
inactive: dose: 100.0 mg/kg/injection, schedule: Q01DX001 (ip), vehicle: other 96 % of control | dose: 200.0 mg/kg/injection, schedule: Q01DX001 (ip), vehicle: other 90 % of control | dose: 400.0 mg/kg/injection, schedule: Q01DX001 (ip), vehicle: other 95 % of control

Cc1cc(N=Nc2cccc([N+](=O)[O-])c2)cc(C(=O)O)c1O
inactive: dose: 6.25 mg/kg/injection, schedule: Q01DX001 (ip), vehicle: Klucel (hydroxypropylcellulose) (HPC) 102 % of control | dose: 12.5 mg/kg/injection, schedule: Q01DX001 (ip), vehicle: Klucel (hydroxypropylcellulose) (HPC) 94 % of control | dose: 25.0 mg/kg/injection, schedule: Q01DX001 (ip), vehicle: Klucel (hydroxypropylcellulose) (HPC) 89 % of control

O=C(OCC(F)(F)C(F)(F)C(F)(F)C(F)F)c1ccccc1C(=O)OCC(F)(F)C(F)(F)C(F)(F)C(F)F
inactive: dose: 50.0 mg/kg/injection, schedule: Q01DX001 (ip), vehicle: carboxymethylcellulose (CMC) 91 % of control | dose: 100.0 mg/kg/injection, schedule: Q01DX001 (ip), vehicle: carboxymethylcellulose (CMC) 107 % of control | dose: 200.0 mg/kg/injection, schedule: Q01DX001 (ip), vehicle: carboxymethylcellulose (CMC) 105 % of control | dose: 400.0 mg/kg/injection, schedule: Q01DX001 (ip), vehicle: carboxymethylcellulose (CMC) 94 % of control

O=C(CSCC(=O)c1ccccc1)c1ccccc1
inactive: [1] 93 % of control | [2] 104 % of control | [3] 112 % of control | dose: 80.0 mg/kg/injection, schedule: Q01DX009 (ip), vehicle: Klucel (hydroxypropylcellulose) (HPC) 103 % of control | dose: 115.0 mg/kg/injection, schedule: Q01DX009 (ip), vehicle: Klucel (hydroxypropylcellulose) (HPC) 100 % of control | dose: 170.0 mg/kg/injection, schedule: Q01DX009 (ip), vehicle: Klucel (hydroxypropylcellulose) (HPC) 100 % of control

COc1cc(C(C)=O)ccc1OCc1ccccc1
inactive: dose: 25.0 mg/kg/injection, schedule: Q01DX009 (ip), vehicle: saline with Tween-80 98 % of control and 107 % of control | dose: 50.0 mg/kg/injection, schedule: Q01DX009 (ip), vehicle: saline with Tween-80 96 % of control and 103 % of control | [8] 96 % of control and 101 % of control | [9] 93 % of control and 112 % of control

CC(=O)Nc1ccc(Cc2cc(=O)[nH]c(=O)[nH]2)cc1
inactive: dose: 9.38 mg/kg/injection, schedule: Q01DX001 (ip), vehicle: saline with Tween-80 106 % of control | dose: 18.75 mg/kg/injection, schedule: Q01DX001 (ip), vehicle: saline with Tween-80 96 % of control | dose: 37.5 mg/kg/injection, schedule: Q01DX001 (ip), vehicle: saline with Tween-80 104 % of control

CN(C=O)c1ccc(C(=O)N(C(=O)NC2CCCCC2)C2CCCCC2)cc1
inactive: [10] 98 % of control | [11] 93 % of control | [12] 90 % of control

COc1cc(CNC(=O)NCCCl)cc(OC)c1OC
inactive: dose: 100.0 mg/kg/injection, schedule: Q01DX001 (ip), vehicle: Klucel (hydroxypropylcellulose) (HPC) 96 % of control | dose: 100.0 mg/kg/injection, schedule: Q01DX009 (ip), vehicle: Klucel (hydroxypropylcellulose) (HPC) 94 % of control | dose: 200.0 mg/kg/injection, schedule: Q01DX001 (ip), vehicle: Klucel (hydroxypropylcellulose) (HPC) 88 % of control | dose: 200.0 mg/kg/injection, schedule: Q01DX009 (ip), vehicle: Klucel (hydroxypropylcellulose) (HPC) 95 % of control | dose: 400.0 mg/kg/injection, schedule: Q01DX001 (ip), vehicle: Klucel (hydroxypropylcellulose) (HPC) 98 % of control | dose: 400.0 mg/kg/injection, schedule: Q01DX009 (ip), vehicle: Klucel (hydroxypropylcellulose) (HPC) 90 % of control

OCCNCc1ccc2ccccc2c1
inactive: dose: 150.0 mg/kg/injection, schedule: Q01DX015 (ip), vehicle: saline 90 % of control
